# From ChEMBL document CHEMBL1139267, “Discovery of a potent, selective and orally bioavailable 3,9-diazaspiro[5.5]undeca-2-one CCR5 antagonist” (Bioorg Med Chem Lett, 2009)
# Tests used:
# [1] = test system: Human immunodeficiency virus 1; assay: Antiviral activity against R5 tropic HIV1 BaL infected in human JC53-BL cells expressing CCR5 after 2 days by cell-cell fusion assay; assay type: functional, organism-based; conditions: Human immunodeficiency virus 1, BaL, JC53BL, 48 h
# [2] = molecular target: C-C chemokine receptor type 5 (Homo sapiens, UniProt P51681); assay: Antagonist activity at CCR5 receptor by radiolabeled RANTES binding assay
# [3] = Metabolic stability in human liver microsomes assessed as clearance; assay type: ADME, Microsome
# [4] = test system: Human immunodeficiency virus 1; assay: Inhibition of R5 tropic HIV1 BaL replication in human PBMC; assay type: functional, organism-based; conditions: Human immunodeficiency virus 1, BaL
# [5] = molecular target: C-C chemokine receptor type 2 (Homo sapiens, UniProt P41597); assay: Inhibition of CCR2 receptor
# [6] = Clearance in rat at 0.5 mg/kg, iv; assay type: ADME, organism-based; parameters: dose 0.5 mg/kg, route intravenous; conditions: in vivo
# [7] = Mean retention time in rat at 0.5 mg/kg, iv; assay type: ADME, organism-based; parameters: dose 0.5 mg/kg, route intravenous; conditions: in vivo
# [8] = molecular target: T1, C-C chemokine receptor type 3 (Homo sapiens, UniProt P51677); assay: Inhibition of CCR3 receptor
# T1 sequence (P51677 whole entry): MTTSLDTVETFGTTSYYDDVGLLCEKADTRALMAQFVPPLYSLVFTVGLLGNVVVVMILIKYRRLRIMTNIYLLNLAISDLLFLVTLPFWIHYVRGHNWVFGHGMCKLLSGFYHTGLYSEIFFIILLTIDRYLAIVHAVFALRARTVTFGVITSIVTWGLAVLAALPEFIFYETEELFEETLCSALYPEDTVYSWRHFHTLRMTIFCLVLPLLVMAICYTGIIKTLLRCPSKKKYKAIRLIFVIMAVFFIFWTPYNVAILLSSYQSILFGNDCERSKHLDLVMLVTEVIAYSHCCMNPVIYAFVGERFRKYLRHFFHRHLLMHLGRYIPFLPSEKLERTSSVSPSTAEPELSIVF
# [9] = Oral bioavailability in rat at 2 mg/kg; assay type: ADME, organism-based; conditions: in vivo
# [10] = test system: Rattus norvegicus; assay: AUC in rat at 2 mg/kg, po; assay type: ADME, organism-based, Plasma; parameters: dose 2 mg/kg, route oral; conditions: in vivo
# [11] = test system: Rattus norvegicus; assay: Tmax in rat at 2 mg/kg, po; assay type: ADME, organism-based; parameters: dose 2 mg/kg, route oral; conditions: in vivo
# [12] = molecular target: C-X-C chemokine receptor type 4 (Homo sapiens, UniProt P61073); assay: Inhibition of CXCR4 receptor
# [13] = molecular target: T2, C-C chemokine receptor type 1 (Homo sapiens, UniProt P32246); assay: Inhibition of CCR1 receptor
# T2 sequence (P32246 whole entry): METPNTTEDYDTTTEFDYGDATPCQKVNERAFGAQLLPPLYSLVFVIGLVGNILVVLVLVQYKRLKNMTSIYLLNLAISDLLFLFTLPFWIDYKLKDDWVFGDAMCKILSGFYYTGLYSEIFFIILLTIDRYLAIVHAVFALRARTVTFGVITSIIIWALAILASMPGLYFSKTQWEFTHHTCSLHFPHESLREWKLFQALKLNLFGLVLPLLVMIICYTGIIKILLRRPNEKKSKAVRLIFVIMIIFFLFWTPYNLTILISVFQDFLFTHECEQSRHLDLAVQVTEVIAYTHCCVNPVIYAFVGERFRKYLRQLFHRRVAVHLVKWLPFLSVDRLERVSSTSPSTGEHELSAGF
# [14] = molecular target: hERG (KCNH2) (Homo sapiens, UniProt Q12809); assay: Inhibition of human ERG receptor
# [15] = molecular target: T3, C-C chemokine receptor type 6 (Homo sapiens, UniProt P51684); assay: Inhibition of CCR6 receptor
# T3 sequence (P51684 whole entry): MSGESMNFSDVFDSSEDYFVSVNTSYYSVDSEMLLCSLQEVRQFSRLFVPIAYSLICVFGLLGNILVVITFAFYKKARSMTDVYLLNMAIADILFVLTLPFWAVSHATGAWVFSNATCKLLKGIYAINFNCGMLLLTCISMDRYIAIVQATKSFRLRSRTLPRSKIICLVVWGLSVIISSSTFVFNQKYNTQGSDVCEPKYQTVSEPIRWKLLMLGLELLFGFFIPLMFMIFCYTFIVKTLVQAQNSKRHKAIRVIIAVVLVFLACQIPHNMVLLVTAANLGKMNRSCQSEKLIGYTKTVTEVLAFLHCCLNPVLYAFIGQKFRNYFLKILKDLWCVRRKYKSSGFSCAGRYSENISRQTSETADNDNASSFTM
# [16] = Half life in rat at 0.5 mg/kg, iv; assay type: ADME, organism-based; parameters: dose 0.5 mg/kg, route intravenous; conditions: in vivo
# [17] = molecular target: T4, C-C chemokine receptor type 4 (Homo sapiens, UniProt P51679); assay: Inhibition of CCR4 receptor
# T4 sequence (P51679 whole entry): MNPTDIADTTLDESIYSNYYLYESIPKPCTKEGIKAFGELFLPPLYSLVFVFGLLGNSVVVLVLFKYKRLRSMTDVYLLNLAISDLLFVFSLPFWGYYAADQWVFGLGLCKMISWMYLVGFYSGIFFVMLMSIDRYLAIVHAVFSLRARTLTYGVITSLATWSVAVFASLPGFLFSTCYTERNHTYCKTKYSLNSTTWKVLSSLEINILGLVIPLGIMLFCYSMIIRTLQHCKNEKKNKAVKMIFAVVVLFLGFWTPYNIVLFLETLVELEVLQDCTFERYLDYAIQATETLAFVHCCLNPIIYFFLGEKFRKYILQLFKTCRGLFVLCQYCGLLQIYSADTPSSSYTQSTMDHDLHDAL
# [18] = Volume of distribution at steady state in rat at 0.5 mg/kg, iv; assay type: ADME, organism-based; parameters: dose 0.5 mg/kg, route intravenous; conditions: in vivo, read-out: Vdss
# [19] = test system: Rattus norvegicus; assay: Cmax in rat at 2 mg/kg, po; assay type: ADME, organism-based; parameters: dose 2 mg/kg, route oral; conditions: in vivo
# [20] = AUC in rat at 0.5 mg/kg, iv; assay type: ADME, organism-based; parameters: dose 0.5 mg/kg, route intravenous; conditions: plasma
# [21] = test system: Rattus norvegicus; assay: Half life in rat at 2 mg/kg, po; assay type: ADME, organism-based; parameters: dose 2 mg/kg, route oral; conditions: in vivo
# [22] = Mean retention time in rat at 2 mg/kg, po; assay type: ADME, organism-based; parameters: dose 2 mg/kg, route oral; conditions: in vivo
# Chain of C-C chemokine receptor type 5 (P51681 whole entry): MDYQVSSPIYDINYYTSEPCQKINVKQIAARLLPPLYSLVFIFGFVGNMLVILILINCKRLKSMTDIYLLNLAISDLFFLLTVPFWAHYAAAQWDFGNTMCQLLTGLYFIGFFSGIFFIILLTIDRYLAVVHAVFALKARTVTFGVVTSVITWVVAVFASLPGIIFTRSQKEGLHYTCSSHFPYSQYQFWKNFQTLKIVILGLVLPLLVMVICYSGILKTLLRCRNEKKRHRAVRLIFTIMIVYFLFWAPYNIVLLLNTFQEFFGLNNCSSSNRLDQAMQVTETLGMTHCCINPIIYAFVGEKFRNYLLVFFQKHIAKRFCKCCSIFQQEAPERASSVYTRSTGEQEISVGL
# Chain of C-C chemokine receptor type 2 (P41597 whole entry): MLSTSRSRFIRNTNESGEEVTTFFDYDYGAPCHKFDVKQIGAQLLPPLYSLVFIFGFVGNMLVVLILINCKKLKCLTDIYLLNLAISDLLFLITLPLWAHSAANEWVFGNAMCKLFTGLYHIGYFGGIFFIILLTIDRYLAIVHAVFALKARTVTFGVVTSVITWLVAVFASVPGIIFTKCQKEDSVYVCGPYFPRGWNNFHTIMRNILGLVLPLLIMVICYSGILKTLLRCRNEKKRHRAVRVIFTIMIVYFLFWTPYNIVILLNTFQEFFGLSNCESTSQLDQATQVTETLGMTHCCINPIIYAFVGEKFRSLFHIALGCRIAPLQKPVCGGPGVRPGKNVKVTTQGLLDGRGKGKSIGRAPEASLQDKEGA
# Chain of hERG (KCNH2) (Q12809 whole entry): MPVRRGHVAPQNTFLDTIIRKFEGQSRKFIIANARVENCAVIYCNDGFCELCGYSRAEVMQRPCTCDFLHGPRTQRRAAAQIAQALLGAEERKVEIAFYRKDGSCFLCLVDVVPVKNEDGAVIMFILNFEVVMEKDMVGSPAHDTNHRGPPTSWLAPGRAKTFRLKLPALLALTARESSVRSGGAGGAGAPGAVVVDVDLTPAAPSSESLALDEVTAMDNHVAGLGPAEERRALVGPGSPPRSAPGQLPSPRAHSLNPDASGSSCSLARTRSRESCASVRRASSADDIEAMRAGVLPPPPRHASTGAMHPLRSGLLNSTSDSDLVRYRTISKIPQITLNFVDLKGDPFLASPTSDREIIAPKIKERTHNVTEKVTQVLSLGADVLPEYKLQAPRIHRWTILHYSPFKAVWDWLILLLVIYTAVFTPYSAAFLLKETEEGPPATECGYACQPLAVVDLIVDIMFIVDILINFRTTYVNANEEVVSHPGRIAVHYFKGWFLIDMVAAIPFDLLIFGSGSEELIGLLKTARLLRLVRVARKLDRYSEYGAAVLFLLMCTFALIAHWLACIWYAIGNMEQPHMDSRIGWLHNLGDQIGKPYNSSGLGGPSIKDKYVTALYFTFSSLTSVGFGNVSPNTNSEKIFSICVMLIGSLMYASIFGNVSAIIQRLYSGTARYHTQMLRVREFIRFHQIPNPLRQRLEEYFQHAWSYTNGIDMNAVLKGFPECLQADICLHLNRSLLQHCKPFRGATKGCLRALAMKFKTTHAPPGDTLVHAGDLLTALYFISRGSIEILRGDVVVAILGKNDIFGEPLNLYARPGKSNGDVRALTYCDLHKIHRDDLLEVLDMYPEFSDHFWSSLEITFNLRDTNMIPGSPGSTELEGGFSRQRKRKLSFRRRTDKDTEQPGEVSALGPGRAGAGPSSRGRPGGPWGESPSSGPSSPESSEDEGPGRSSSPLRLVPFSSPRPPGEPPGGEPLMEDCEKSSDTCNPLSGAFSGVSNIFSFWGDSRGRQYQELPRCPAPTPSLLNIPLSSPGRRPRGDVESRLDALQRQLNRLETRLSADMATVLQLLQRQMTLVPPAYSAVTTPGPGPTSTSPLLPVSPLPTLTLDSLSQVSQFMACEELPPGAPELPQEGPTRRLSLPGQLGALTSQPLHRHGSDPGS
# Chain of C-X-C chemokine receptor type 4 (P61073 whole entry): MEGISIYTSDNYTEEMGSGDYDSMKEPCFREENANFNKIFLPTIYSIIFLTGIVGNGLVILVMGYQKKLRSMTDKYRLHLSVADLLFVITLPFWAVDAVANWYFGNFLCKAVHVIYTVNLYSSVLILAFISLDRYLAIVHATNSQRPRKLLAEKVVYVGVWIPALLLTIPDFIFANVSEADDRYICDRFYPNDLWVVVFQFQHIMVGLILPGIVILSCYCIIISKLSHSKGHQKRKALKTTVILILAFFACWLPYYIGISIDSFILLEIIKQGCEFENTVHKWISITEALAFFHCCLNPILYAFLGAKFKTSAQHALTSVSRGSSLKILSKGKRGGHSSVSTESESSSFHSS
IC50 [1] [nM],IC50 [2] [nM],microsomal CLint [3] [µL/min/mg],Compound,further results
< 2.5,31,,CCCCC1C(=O)N(C[C@H]2CC[C@H](O)CC2)CCC12CCN(C1(C)CCN(C(=O)c3c(C)cc(C#N)nc3C)CC1)CC2 (some centres not stated),
4,18,310,CCCCC1CN(S(=O)(=O)c2ccccn2)CCC12CCN(C1(C)CCN(C(=O)c3c(C)ncnc3C)CC1)CC2 (configuration not stated),
10,76,,CCCCC1C(=O)N(C[C@H]2CC[C@H](O)CC2)CCC12CCN(C1(C)CCN(C(=O)c3c(C)ncnc3C)CC1)CC2 (some centres not stated),
< 1,19,773,CCCCC1CN(S(=O)(=O)c2ccccc2)CCC12CCN(C1(C)CCN(C(=O)c3c(C)ncnc3C)CC1)CC2 (configuration not stated),
5,30,,CCCCC1C(=O)N(C[C@H]2CC[C@H](OCC)CC2)CCC12CCN(C1(C)CCN(C(=O)c3c(C)ncnc3C)CC1)CC2 (some centres not stated),IC50 [4]: 1.4 nM; IC90 [4]: 7.5 nM; IC50 [5]: > 50000 nM; clearance [6]: 24.1 mL/min/kg; MRT [7]: 2.65 h; IC50 [8]: > 50000 nM; bioavailability [9]: 66%; AUC [10]: 910 ng·h/mL; Tmax [11]: 1 h; IC50 [12]: > 50000 nM; IC50 [13]: > 50000 nM; IC20 [14]: 3000 nM; IC50 [15]: > 50000 nM; half-life [16]: 3.8 h; IC50 [17]: > 50000 nM; Vd [18]: 4.71 L/kg; Cmax [19]: 2.03 ng/mL; AUC [20]: 334 ng·h/mL; t1/2 [21]: 4.19 h; MRT [22]: 4.33 h
7,27,96,CCCCC1CN(S(=O)(=O)c2cn(C)cn2)CCC12CCN(C1(C)CCN(C(=O)c3c(C)ncnc3C)CC1)CC2 (configuration not stated),
100,19,,CCCCC1C(=O)N(Cc2ccc(F)cc2)CCC12CCN(C1(C)CCN(C(=O)c3c(C)ncnc3C)CC1)CC2 (configuration not stated),
6,22,280,CCCCC1CN(S(=O)(=O)C2CCOCC2)CCC12CCN(C1(C)CCN(C(=O)c3c(C)ncnc3C)CC1)CC2 (configuration not stated),
10,78,70,CCCCC1CN(S(=O)(=O)C2CCN(C(C)=O)CC2)CCC12CCN(C1(C)CCN(C(=O)c3c(C)ncnc3C)CC1)CC2 (configuration not stated),
3,19,53,CCCC[C@H]1CN(S(=O)(=O)CC(F)(F)F)CCC12CCN(C1(C)CCN(C(=O)c3c(C)ncnc3C)CC1)CC2,
4,30,,CCCCC1C(=O)N(CC2CCOCC2)CCC12CCN(C1(C)CCN(C(=O)c3c(C)ncnc3C)CC1)CC2 (configuration not stated),
400,80,,CCCOC1CN(S(=O)(=O)C2CC2)CCC12CCN(C1(C)CCN(C(=O)c3c(C)ncnc3C)CC1)CC2 (configuration not stated),
1900,104,,Cc1ncnc(C)c1C(=O)N1CCC(C)(N2CCC3(CC2)CCN(S(C)(=O)=O)CC3c2ccccc2)CC1 (configuration not stated),
> 5000,> 500,,CCCCC1CN(CC2CCOCC2)CCC12CCN(C1(C)CCN(C(=O)c3c(C)ncnc3C)CC1)CC2 (configuration not stated),
100,25,7,CCCCC1CN(S(C)(=O)=O)CCC12CCN(C1(C)CCN(C(=O)c3c(C)ncnc3C)CC1)CC2 (configuration not stated),
7,22,100,CCCCC1CN(S(=O)(=O)C2CC2)CCC12CCN(C1(C)CCN(C(=O)c3c(C)ncnc3C)CC1)CC2 (configuration not stated),
> 5000,349,,CCCCC1CN(C(=O)OC2CCOCC2)CCC12CCN(C1(C)CCN(C(=O)c3c(C)ncnc3C)CC1)CC2 (configuration not stated),
8,60,,CCCCC1C(=O)N(CC2CCN(C(=O)OC)CC2)CCC12CCN(C1(C)CCN(C(=O)c3c(C)ncnc3C)CC1)CC2 (configuration not stated),
6,37,,CCCCC1C(=O)N(C[C@H]2CC[C@H](OC)CC2)CCC12CCN(C1(C)CCN(C(=O)c3c(C)ncnc3C)CC1)CC2 (some centres not stated),
1,11,276,CCCCC1CN(S(=O)(=O)N2CCOCC2)CCC12CCN(C1(C)CCN(C(=O)c3c(C)ncnc3C)CC1)CC2 (configuration not stated),
,,,CCCC[C@H]1C(=O)N(C[C@H]2CC[C@H](OCC)CC2)CCC12CCN(C1(C)CCN(C(=O)c3c(C)ncnc3C)CC1)CC2,IC50 [4]: 0.8 nM; IC90 [4]: 4 nM
170,217,,CCCCC1CN(C(=O)C2CCOCC2)CCC12CCN(C1(C)CCN(C(=O)c3c(C)cc(C#N)nc3C)CC1)CC2 (configuration not stated),
14,64,60,CCCCC1CN(S(=O)(=O)C2CCN(C=O)CC2)CCC12CCN(C1(C)CCN(C(=O)c3c(C)ncnc3C)CC1)CC2 (configuration not stated),
,,,CCCC[C@@H]1C(=O)N(C[C@H]2CC[C@H](OCC)CC2)CCC12CCN(C1(C)CCN(C(=O)c3c(C)ncnc3C)CC1)CC2,IC50 [4]: 0.5 nM; IC90 [4]: 3 nM
> 5000,> 500,,CCCCC1CN(C(=O)C2CCOCC2)CCC12CCN(C1(C)CCN(C(=O)c3c(C)ncnc3C)CC1)CC2 (configuration not stated),
4,35,,CCCC[C@H]1CN(C(=O)NC)CCC12CCN(C1(C)CCN(C(=O)c3c(C)ncnc3C)CC1)CC2,
7,60,207,CCCCC1CN(S(=O)(=O)N(C)C)CCC12CCN(C1(C)CCN(C(=O)c3c(C)ncnc3C)CC1)CC2 (configuration not stated),

Compound,IC50 [1] [nM],IC50 [2] [nM],microsomal CLint [3] [µL/min/mg],further results
CCCCC1C(=O)N(CC2CCN(CC(F)F)CC2)CCC12CCN(C1(C)CCN(C(=O)c3c(C)ncnc3C)CC1)CC2 (configuration not stated),26,70,,
